Results: patent publication US8623325B2, “Azide modified charge sensitive channel proteins” (priority 2008, dated 2014)

Biological target: T1, E. coli channel protein MscL Gly22Cys (Escherichia coli, UniProt P0A742, G22C)
T1 construct: made in house
Experiment: Calcein release from liposomes containing MscL Gly22Cys (self-quenching fluorescent dye)
Format: biochemical
Description: MscL-MA was reconstituted into synthetic liposomes composed of azolectin by using a detergent mediated reconstitution method. The incorporation of channels protein in lipid vesicles is describe in detail in WO2005051902 This procedure was performed in the presence of calcein, a self-quenching fluorescent dye. At high local concentrations inside the liposomes, the fluorescence of calcein is low. Release of calcein from liposomes results in dilution of the dye and consequently in a large increase in fluorescence intensity. The labelling and reconstitution was validated by using unlabeled MscL instead of MscL-MA.
The activity of azide labeled Gly22Cys MscL in the liposome was verified with triphenylphosphine (Trisodium triphenylphosphine-3,3′,3″-trisulfonate) at pH 7.2-7.5 at 37° C.
A control experiment was performed using vesicles with unlabelled Gly22Cys MscL and the channel activator MTSET, which is a charged and cysteine-reactive molecule.
MscL-MA has a closed conformation. Calcein can not leave from a vesicle via this closed MscL-MA. To these vesicles MTSET was added. Unlabelled cysteine residues, if present, will react with MTSET and introduce a charge in the channel protein resulting in the opening of the channel and release of fluorescent label. Such residual activation was not observed, showing that a quantitative MA labelling of all cysteines in MscL was obtained (FIG. 7, bottom panel).
In the experimental setting calcein-filled vesicles with MscL-MA are treated with triphenylphosphine at […].
Control experiments are performed using the same calcein filled vesicles with MscL, which is not modified with MA and wherein these unmodified vesicles are treated with triphenylphosphine.

T1 sequence (P0A742 whole entry G22C): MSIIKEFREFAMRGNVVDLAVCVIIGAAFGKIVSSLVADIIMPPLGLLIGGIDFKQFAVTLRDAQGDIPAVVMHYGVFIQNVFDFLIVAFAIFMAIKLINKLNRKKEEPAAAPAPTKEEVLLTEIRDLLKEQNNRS

Compound | calcein release after addition of MTSET (calcein-filled liposomes with unlabelled (unmodified) Gly22Cys MscL) | activation / calcein release after addition of MTSET (vesicles with azide-modified MscL (MscL-MA)) | release from MscL upon contacting with phosphine (MscL modified with compound IX, calcein filled vesicles, pH 7.4)
C[N+](C)(C)CCSS(C)(=O)=O.[Br-] [MTSET] | resulted in calcein release | could not activate the modified MscL | –
CS(=O)(=O)SCCOC(=O)CNC(=O)OCc1ccc(N=[N+]=[N-])cc1 [compound IX] | – | – | significant increase in release
